Common to all, as to type: cell-based
Assay [1] deals with human CB1 receptor (hCB1) (Homo sapiens, UniProt P21554). Briefly: cAMP assay (LANCE TR-FRET) in CHO-K1 cells stably expressing hCB1. The procedure: (§1) The ability of compounds to act as agonists or inverse agonists at human CB2 and CB1 receptors (hCB2, hCB1, respectively) and at the rat CB2 receptor (rCB2) was determined by measuring changes in intracellular cAMP levels. Chinese Hamster Ovary (CHO-K1) cell lines stably expressing hCB2 (Genebank: X74328) or hCB1 (Genebank: X54937) were purchased from Euroscreen (Gosselies, Belgium). The rat CB2 receptor was expressed from genomic DNA (provided by M. Abood, California Pacific Medical Center) in CHO-K1 cells from expression plasmid vector, pcDNA3.1.
human CB1 receptor (hCB1), sequence (P21554 whole entry): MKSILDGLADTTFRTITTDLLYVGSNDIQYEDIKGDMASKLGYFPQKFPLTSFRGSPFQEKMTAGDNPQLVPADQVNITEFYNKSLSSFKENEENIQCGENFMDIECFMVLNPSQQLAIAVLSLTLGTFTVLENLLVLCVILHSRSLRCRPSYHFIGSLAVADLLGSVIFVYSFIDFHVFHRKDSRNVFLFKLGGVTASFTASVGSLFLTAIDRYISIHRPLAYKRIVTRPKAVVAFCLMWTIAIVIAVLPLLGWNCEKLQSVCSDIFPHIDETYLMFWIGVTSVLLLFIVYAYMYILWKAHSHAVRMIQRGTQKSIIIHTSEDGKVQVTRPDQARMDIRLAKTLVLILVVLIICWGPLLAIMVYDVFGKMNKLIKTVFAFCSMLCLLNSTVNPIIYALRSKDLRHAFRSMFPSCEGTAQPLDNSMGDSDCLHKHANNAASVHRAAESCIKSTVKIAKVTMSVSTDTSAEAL
(§2) Receptor mediated responses were determined by measuring changes in intracellular cAMP using LANCE cAMP detection kit (cat #AD0264, Perkin Elmer, Wellesley, Mass.) based on time-resolved fluorescence resonance energy transfer (TR-FRET).
(§3) On the day of the experiment, cells were spun at low speed for 5 min at room temperature. […] Cell clumps were removed by filtering through cell strainer 40 μm (BD Falcon, Discovery Labware, Bedford, Mass.) and diluted to 2×10^5 cells/mL. Antibody supplied with the LANCE cAMP immunoassay kit was then added according to the manufacturer's instructions. An aliquot of cells was taken for un-induced controls. […] Cells were then incubated for 30 min at room temperature prior to adding to Proxiplates containing test compounds (final DMSO concentration was less than 0.5%) with a Multidrop bulk dispenser, followed by a sixty minute incubation at room temperature. The response was stopped by addition of the detection mix supplied with the LANCE kit. The reagents were allowed to equilibrate for three hours prior to reading on an Envision multi-mode detector (Perkin-Elmer). TR-FRET was measured using a 330-380 nm excitation filter, a 665 nm emission filter, dichroic mirror 380 nm and Z=1 mm. Cyclic AMP concentrations in each well were back-calculated from a cAMP standard curve run concurrently during each assay. Each plate contained 16 wells of forskolin stimulated cells and 16 wells of forskolin plus CP55,940-treated cells. […] Concentrations of cAMP were expressed as a percent of the difference of these two groups of wells.

Assay [2] concerns the target T1, human CB2 receptor (hCB2) (Homo sapiens, UniProt P34972).
T1 construct: host or cells: CHO-K1
Put plainly: cAMP assay (LANCE TR-FRET) in CHO-K1 cells stably expressing hCB2. The procedure:
as §1, §2, §3
(Changes in cAMP serve as a functional read-out for many G protein-coupled receptors.)

The target of another assay is T2, rat CB2 receptor (rCB2) (Rattus norvegicus, UniProt Q9QZN9).
T2 construct: expressed in transfected cells; host or cells: CHO-K1 (plasmid pcDNA3.1)
T2 sequence (Q9QZN9 1-360): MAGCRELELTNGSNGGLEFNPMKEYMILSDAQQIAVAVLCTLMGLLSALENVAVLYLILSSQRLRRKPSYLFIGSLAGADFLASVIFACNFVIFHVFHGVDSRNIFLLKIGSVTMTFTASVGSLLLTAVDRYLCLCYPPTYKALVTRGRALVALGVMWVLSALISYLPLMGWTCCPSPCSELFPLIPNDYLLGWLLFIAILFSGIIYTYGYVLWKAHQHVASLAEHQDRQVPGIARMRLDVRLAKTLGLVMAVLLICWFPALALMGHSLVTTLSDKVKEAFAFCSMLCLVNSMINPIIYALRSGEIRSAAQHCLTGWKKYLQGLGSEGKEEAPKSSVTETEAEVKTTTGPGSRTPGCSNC
Briefly: cAMP assay (LANCE TR-FRET) in CHO-K1 cells expressing rat CB2. On the procedure:
as §1, §2, §3

Structures are written as SMILES. Like-named read-outs stand apart in the source and are kept apart here. Some results are limits rather than exact numbers.

T1 sequence (P34972 whole entry): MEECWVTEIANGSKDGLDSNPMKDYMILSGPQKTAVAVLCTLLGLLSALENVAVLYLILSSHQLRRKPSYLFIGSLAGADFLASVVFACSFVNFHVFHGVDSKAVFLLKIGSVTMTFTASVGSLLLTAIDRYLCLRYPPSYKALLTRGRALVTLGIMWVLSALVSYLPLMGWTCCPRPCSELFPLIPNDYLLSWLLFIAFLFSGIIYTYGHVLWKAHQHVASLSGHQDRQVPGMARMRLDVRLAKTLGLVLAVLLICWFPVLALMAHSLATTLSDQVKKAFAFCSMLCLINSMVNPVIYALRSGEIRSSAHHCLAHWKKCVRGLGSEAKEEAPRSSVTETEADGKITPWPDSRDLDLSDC

By EC50 is commonly meant the concentration needed to bring the measured effect to its halfway point. With `CCN1Cc2c(C(=O)N[C@H](C(=O)NC)C(C)(C)C)nc(-c3ccc(F)c(F)c3)n2CC(C)C1` (mixture of isomers) [Compound 2-3, (S)-3-(3,4-difluorophenyl)-N-(3,3-dimethyl-1-(methylamino)-1-oxobutan-2-yl)-8-ethyl-6-methyl-6,7,8,9-tetrahydro-5H-imidazo[1,5-a][1,4]diazepine-1-carboxamide], the EC50 in assay [1] and in assay [2] was 10 to 100 nM throughout.
Consider `CNC(=O)[C@@H](NC(=O)c1nc(-c2ccc(Cl)cc2F)n2c1COCCC2)C(C)(C)C` [Compound 1-13, (S)-3-(4-chloro-2-fluorophenyl)-N-(3,3-dimethyl-1-(methylamino)-1-oxobutan-2-yl)-5,6,7,9-tetrahydroimidazo[5,1-c][1,4]oxazepine-1-carboxamide], for which the EC50 in assay [1] and in assay [2] was 0.1 to 10 nM each time.
Take `O=C(N[C@@H]1c2ccccc2C[C@@H]1O)c1nc(-c2ccc(F)c(F)c2)n2c1CCCCC2` [Compound 1-16, 3-(3,4-difluorophenyl)-N-((1R,2S)-2-hydroxy-2,3-dihydro-1H-inden-1-yl)-6,7,8,9-tetrahydro-5H-imidazo[1,5-a]azepine-1-carboxamide]: the 50% effective concentration (EC50) in assay [1] and in assay [2] was 10 to 100 nM in each case.
Take `O=C(N[C@@H]1c2ccccc2C[C@H]1O)c1nc(-c2ccc(F)c(F)c2)n2c1CCCCC2` [Compound 1-17, 3-(3,4-difluorophenyl)-N-((1R,2R)-2-hydroxy-2,3-dihydro-1H-inden-1-yl)-6,7,8,9-tetrahydro-5H-imidazo[1,5-a]azepine-1-carboxamide]: the EC50 in assay [1] and in assay [2] was 10 to 100 nM each time.
As for `CNC(=O)[C@@H](NC(=O)c1nc(-c2ccccc2)n2c1CCNCC2)C(C)(C)C` [Compound 3-8, (S)-N-(3,3-dimethyl-1-(methylamino)-1-oxobutan-2-yl)-3-phenyl-6,7,8,9-tetrahydro-5H-imidazo[1,5-d][1,4]diazepine-1-carboxamide], the EC50 at rat CB2 receptor (rCB2) is 10 to 100 nM.
Take `CC(C)(C)[C@H](NC(=O)c1nc(-c2cc(F)ccc2F)n2c1CCCCC2)C(=O)N1CCC1` [Compound 1-5, (S)—N-(1-(azetidin-1-yl)-3,3-dimethyl-1-oxobutan-2-yl)-3-(2,5-difluorophenyl)-6,7,8,9-tetrahydro-5H-imidazo[1,5-a]azepine-1-carboxamide]: the concentration for a half-maximal effect (EC50) in assay [1] and in assay [2] was 0.1 to 10 nM throughout.
At rat CB2 receptor (rCB2), `CNC(=O)[C@@H](NC(=O)c1nc(-c2ccccc2)n2c1CCN(CC(C)C)CC2)C(C)(C)C` [Compound 3-10, (S)-N-(3,3-dimethyl-1-(methylamino)-1-oxobutan-2-yl)-7-isobutyl-3-phenyl-6,7,8,9-tetrahydro-5H-imidazo[1,5-d][1,4]diazepine-1-carboxamide] gave an EC50 of 10 to 100 nM.
For the molecule `CNC(=O)[C@@H](NC(=O)c1nc(-c2ccc(F)c(F)c2)n2c1CCCC2)C(C)(C)C` [Compound 1-7, (S)-3-(3,4-difluorophenyl)-N-(3,3-dimethyl-1-(methyl-amino)-1-oxobutan-2-yl)-5,6,7,8-tetrahydroimidazo[1,5-a]pyridine-1-carboxamide], the EC50 in assay [1] and in assay [2] was 0.1 to 10 nM throughout.
On to `Cc1nnc(-c2nc(-c3ccc(F)c(F)c3)n3c2CCCCC3)o1` [Compound 4-1, 2-(3-(3,4-difluorophenyl)-6,7,8,9-tetrahydro-5H-imidazo[1,5-a]azepin-1-yl)-5-methyl-1,3,4-oxadiazole], for which the EC50 on rat CB2 receptor (rCB2) (above the detectable range, read-out: EC50 rat CB2 receptor) is greater than 10000 nM; in assay [2] (text statement b297, read-out: EC50 human CB2 receptor), greater than 10000 nM.
As for `CC[C@H](C)[C@H](NC(=O)c1nc(-c2ccc(F)c(F)c2)n2c1CCCCC2)C(N)=O` [Compound 1-14, N-((2S,3S)-1-amino-3-methyl-1-oxopentan-2-yl)-3-(3,4-difluorophenyl)-6,7,8,9-tetrahydro-5H-imidazo[1,5-a]azepine-1-carboxamide], the EC50 in assay [1] and in assay [2] was 0.1 to 10 nM throughout.
As for `CC(C)(C)[C@H](NC(=O)c1nc(-c2ccccc2)n2c1CCCCC2)C(=O)NCCF` [Compound 1-22, (S)—N-(1-(2-fluoroethylamino)-3,3-dimethyl-1-oxobutan-2-yl)-3-phenyl-6,7,8,9-tetrahydro-5H-imidazo[1,5-a]azepine-1-carboxamide], the EC50 in assay [1] lay within 10 to 100 nM; in assay [2], 0.1 to 10 nM.
The like results for `COC(=O)[C@@H](NC(=O)c1nc(-c2ccc(F)c(F)c2)n2c1CCCCC2)C(C)(C)C` [Compound 1-23, (S)-methyl 2-(3-(3,4-difluorophenyl)-6,7,8,9-tetrahydro-5H-imidazo[1,5-a]azepine-1-carboxamido)-3,3-dimethylbutanoate] were, in that order, 0.1 to 10 nM and 0.1 to 10 nM.
The like results for `CC(C)(C)[C@H](NC(=O)c1nc(-c2ccccc2)n2c1CCCCC2)C(=O)N1CCC1` [Compound 1-4, (S)—N-(1-(azetidin-1-yl)-3,3-dimethyl-1-oxobutan-2-yl)-3-phenyl-6,7,8,9-tetrahydro-5H-imidazo[1,5-a]azepine-1-carboxamide] were, in that order, 10 to 100 nM and 0.1 to 10 nM.
For the molecule `CNC(=O)[C@@H](NC(=O)c1nc(-c2ccccc2)n2c1CCN(C(C)=O)CC2)C(C)(C)C` [Compound 3-12, (S)-7-acetyl-N-(3,3-dimethyl-1-(methylamino)-1-oxobutan-2-yl)-3-phenyl-6,7,8,9-tetrahydro-5H-imidazo[1,5-d][1,4]diazepine-1-carboxamide], the EC50 (in assay [1]; on rat CB2 receptor (rCB2); in assay [2]) was greater than 10000 nM each time.
Regarding `O=C(N[C@H]1c2ccccc2C[C@H]1O)c1nc(-c2ccc(F)c(F)c2)n2c1CCCCC2` [Compound 1-18, 3-(3,4-difluorophenyl)-N-((1S,2R)-2-hydroxy-2,3-dihydro-1H-inden-1-yl)-6,7,8,9-tetrahydro-5H-imidazo[1,5-a]azepine-1-carboxamide], the EC50 lay in the range of 10 to 100 nM in assay [1] and 0.1 to 10 nM in assay [2].
For the molecule `CNC(=O)[C@@H](NC(=O)c1nc(-c2ccccc2)n2c1CCN(C)CC2)C(C)(C)C` [Compound 3-9, (S)-N-(3,3-dimcthyl-1-(methylamino)-1-oxobutan-2-yl)-7-methyl-3-phenyl-6,7,8,9-tetrahydro-5H-imidazo[1,5-d][1,4]diazepine-1-carboxamide], the 50% effective concentration (EC50) (in assay [1]; on rat CB2 receptor (rCB2); in assay [2]) was greater than 10000 nM throughout.
For the molecule `CCS(=O)(=O)N1CCc2c(C(=O)N[C@H](C(=O)NC)C(C)(C)C)nc(-c3ccccc3)n2CC1` [Compound 3-14, (S)-N-(3,3-dimethyl-1-(methylamino)-1-oxobutan-2-yl)-7-(ethylsulfonyl)-3-phenyl-6,7,8,9-tetrahydro-5H-imidazo[1,5-d][1,4]diazepine-1-carboxamide], the EC50 in assay [1] was greater than 10000 nM; at rat CB2 receptor (rCB2), 10 to 100 nM; in assay [2] it was greater than 10000 nM.
On to `CNC(=O)[C@@H](NC(=O)c1nc(-c2ccccc2)n2c1CCN(S(=O)(=O)c1ccc(F)cc1)CC2)C(C)(C)C` [Compound 3-15, (S)-N-(3,3-dimethyl-1-(methylamino)-1-oxobutan-2-yl)-7-(4-fluorophenyl-sulfonyl)-3-phenyl-6,7,8,9-tetrahydro-5H-imidazo[1,5-d][1,4]diazepine-1-carboxamide], for which the EC50 at rat CB2 receptor (rCB2) was in the range of 0.1 to 10 nM.
For the molecule `CNC(=O)[C@@H](NC(=O)c1nc(-c2ccccc2)n2c1CCN(CC1CC1)CC2)C(C)(C)C` [Compound 3-11, (S)-7-(cyclopropylmethyl)-N-(3,3-dimethyl-1-(methylamino)-1-oxobutan-2-yl)-3-phenyl-6,7,8,9-tetrahydro-5H-imidazo[1,5-d][1,4]diazepine-1-carboxamidc], the figures for the EC50 (in assay [1]; at rat CB2 receptor (rCB2); in assay [2]) were greater than 10000 nM, 0.1 to 10 nM and greater than 10000 nM, respectively.

These data come from patent US8835422B2, “Substituted imidazoheterocycle derivatives” (Cara Therapeutics, Inc., priority 2008, dated 2014).
